Results as given in ChEMBL document CHEMBL1201862, “PubChem BioAssay data set” (2004).
Activity calls are given as the source filed them.

Key:
[1] = molecular target: T1, Coagulation factor XII (Homo sapiens, UniProt P00748); test: Factor XIIa Dose Response Confirmation from Single Well HTS. [Related pubchem assays (depositor defined):AID701]; format: functional
T1 sequence (P00748 whole entry): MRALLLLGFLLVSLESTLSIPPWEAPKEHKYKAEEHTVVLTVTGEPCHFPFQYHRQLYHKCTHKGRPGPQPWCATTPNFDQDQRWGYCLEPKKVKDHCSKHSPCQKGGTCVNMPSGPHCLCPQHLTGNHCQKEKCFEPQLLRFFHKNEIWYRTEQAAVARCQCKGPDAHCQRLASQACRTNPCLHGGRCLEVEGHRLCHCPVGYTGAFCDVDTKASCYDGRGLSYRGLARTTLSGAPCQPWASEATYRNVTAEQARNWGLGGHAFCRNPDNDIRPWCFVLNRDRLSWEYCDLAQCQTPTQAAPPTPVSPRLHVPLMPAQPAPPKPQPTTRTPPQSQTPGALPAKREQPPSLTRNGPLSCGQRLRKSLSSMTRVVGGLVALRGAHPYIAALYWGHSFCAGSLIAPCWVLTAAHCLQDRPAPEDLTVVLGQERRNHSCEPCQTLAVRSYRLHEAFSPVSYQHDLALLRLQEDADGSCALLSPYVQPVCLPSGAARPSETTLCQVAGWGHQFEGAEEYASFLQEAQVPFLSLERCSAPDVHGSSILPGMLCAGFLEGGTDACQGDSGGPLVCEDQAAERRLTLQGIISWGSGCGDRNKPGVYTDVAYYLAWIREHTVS

[2] = system: H9c2; test: cells; format: functional, cell-based; settings: Rattus norvegicus, H9c2, Myocardium;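 further: confirmatory concentration-response retest of ultra-high-throughput screening hits for modulation of myocardial damage; cell death induced by hydrogen peroxide oxidative stress; compound pretreatment for 60 min then peroxide exposure for 2 h; potency is for protecting the cells against peroxide damage rather than for killing them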
[3] = molecular target: Signal transducer and activator of transcription 1-alpha/beta (Homo sapiens, UniProt P42224); test: STAT3 blockade with qPCR and toxicity readouts – cell-based, STAT1 panel, cytotoxicity, late-stage follow-up, panel member STAT1 Inhibition (AID 2078)
Sequence of Signal transducer and activator of transcription 1-alpha/beta (P42224 whole entry): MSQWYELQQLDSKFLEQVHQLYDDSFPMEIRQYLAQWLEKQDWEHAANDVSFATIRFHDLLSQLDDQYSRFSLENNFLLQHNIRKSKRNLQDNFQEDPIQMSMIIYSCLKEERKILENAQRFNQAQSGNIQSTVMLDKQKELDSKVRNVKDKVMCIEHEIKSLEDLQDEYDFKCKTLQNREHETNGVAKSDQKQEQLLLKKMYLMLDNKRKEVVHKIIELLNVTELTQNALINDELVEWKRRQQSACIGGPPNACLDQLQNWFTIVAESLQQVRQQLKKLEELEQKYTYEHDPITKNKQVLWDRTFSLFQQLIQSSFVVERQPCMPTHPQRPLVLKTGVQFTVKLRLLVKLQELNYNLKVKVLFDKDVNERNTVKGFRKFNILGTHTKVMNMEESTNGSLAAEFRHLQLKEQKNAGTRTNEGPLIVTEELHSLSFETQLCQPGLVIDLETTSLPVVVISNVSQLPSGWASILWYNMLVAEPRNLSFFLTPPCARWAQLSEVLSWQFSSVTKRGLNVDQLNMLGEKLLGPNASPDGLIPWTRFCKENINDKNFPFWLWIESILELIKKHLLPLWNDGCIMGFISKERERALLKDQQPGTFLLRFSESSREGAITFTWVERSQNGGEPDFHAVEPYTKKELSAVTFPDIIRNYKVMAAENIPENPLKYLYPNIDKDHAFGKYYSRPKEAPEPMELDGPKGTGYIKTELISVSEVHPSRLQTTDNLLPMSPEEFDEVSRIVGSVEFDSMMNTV

[4] = molecular target: Signal transducer and activator of transcription 3 (Homo sapiens, UniProt P40763); test: STAT3 blockade with qPCR and toxicity readouts – cell-based, STAT1 panel, cytotoxicity, late-stage follow-up, panel member STAT3 Inhibition (AID 2078)
[5] = molecular target: Ion channel NompC (Danio rerio, UniProt Q7T1G6); test: Dose response cell-based high-throughput screening assay for agonists of the transient receptor potential channel N1 (TRPN1). [Related pubchem assays (depositor defined):AID1424, AID1448]; format: functional
[6] = molecular target: T2, Corticotropin-releasing factor receptor 2/Corticotropin-releasing factor-binding protein (Homo sapiens, UniProt P24387+Q13324); test: activators of CRF receptor 2 with binding protein – uHTS hits, confirmation (AID 602473); format: functional; settings: read-out: EC50_Mean
T2 sequence (Q13324 whole entry): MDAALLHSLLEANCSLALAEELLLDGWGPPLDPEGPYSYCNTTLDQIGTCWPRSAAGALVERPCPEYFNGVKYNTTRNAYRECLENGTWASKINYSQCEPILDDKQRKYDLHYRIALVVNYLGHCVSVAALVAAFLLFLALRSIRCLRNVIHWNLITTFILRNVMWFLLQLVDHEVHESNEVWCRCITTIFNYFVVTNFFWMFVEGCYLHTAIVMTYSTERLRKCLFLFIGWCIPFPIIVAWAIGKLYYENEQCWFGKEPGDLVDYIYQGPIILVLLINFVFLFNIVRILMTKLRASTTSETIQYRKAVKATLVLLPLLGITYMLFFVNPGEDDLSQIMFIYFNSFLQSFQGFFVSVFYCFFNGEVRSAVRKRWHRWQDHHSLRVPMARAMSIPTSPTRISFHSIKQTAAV
T2 sequence (P24387 whole entry): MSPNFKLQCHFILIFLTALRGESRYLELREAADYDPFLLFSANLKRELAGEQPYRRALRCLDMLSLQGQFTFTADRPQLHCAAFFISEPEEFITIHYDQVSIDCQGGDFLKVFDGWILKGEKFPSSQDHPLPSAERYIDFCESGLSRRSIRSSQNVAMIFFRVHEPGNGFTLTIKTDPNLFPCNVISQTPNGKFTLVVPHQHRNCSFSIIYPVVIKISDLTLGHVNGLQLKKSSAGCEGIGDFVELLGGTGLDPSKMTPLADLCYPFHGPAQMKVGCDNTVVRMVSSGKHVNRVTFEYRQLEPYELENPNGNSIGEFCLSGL

[7] = molecular target: Mucolipin-3 (Homo sapiens, UniProt Q8TDD5); test: Fluorescence counterscreen assay for […] agonists: dose response cell-based high-throughput screening assay to identify agonists of the transient receptor potential channel ML3 (TRPML3). [Related pubchem assays: 1424, 1448 ]; format: functional
Sequence of Mucolipin-3 (Q8TDD5 whole entry): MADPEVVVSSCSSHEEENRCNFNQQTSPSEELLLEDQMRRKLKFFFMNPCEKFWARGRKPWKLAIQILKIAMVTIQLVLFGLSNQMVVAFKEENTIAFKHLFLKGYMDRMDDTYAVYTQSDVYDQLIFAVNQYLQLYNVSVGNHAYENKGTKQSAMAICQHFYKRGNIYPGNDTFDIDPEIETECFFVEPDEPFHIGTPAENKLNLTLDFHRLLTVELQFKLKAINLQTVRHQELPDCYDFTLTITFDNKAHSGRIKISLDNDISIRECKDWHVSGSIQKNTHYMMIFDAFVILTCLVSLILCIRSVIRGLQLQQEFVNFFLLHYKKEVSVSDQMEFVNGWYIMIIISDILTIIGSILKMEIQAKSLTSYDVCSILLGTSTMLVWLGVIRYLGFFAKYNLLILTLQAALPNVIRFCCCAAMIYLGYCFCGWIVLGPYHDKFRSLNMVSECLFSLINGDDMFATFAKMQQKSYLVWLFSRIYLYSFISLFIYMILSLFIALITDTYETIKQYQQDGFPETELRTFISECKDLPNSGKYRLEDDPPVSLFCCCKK

[8] = molecular target: T3, Replicative DNA helicase DnaB (Mycobacterium tuberculosis, UniProt P9WMR3); test: DnaB intein splicing inhibitors, dose response, biochemical, cell-free fluorescence (AID 449749); format: functional
T3 sequence (P9WMR3 whole entry): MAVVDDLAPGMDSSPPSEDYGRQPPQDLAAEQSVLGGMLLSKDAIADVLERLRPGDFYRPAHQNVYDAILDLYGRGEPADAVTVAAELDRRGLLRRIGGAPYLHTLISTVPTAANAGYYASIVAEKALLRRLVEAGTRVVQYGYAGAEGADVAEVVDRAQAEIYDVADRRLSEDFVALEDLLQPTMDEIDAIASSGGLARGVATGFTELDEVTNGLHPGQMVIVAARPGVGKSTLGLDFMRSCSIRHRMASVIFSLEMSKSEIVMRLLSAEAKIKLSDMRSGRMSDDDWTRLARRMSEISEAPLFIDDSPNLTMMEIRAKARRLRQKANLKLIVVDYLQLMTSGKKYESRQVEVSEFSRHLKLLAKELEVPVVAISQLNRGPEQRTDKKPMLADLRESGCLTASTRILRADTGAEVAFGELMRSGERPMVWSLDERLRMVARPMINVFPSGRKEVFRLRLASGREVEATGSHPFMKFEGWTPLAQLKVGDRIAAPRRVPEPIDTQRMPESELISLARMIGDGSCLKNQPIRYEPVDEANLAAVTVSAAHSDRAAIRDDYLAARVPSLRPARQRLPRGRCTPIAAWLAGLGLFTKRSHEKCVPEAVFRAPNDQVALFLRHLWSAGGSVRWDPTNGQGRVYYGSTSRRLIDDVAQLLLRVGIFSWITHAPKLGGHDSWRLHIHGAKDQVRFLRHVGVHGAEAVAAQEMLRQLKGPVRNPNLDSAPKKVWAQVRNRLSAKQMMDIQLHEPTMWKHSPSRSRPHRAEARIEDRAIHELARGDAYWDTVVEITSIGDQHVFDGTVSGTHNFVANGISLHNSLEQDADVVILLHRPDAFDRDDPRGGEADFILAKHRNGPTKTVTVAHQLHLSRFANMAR

[9] = molecular target: T4, Protein RecA (Mycobacterium tuberculosis, UniProt P9WHJ3); test: Fluorescence Cell-Free Homogeneous Dose Retest to Identify Inhibitors of RecA-Intein Splicing Activity. [Related pubchem assays (depositor defined):AID2097, AID2223, AID489010, AID492950]; format: functional
T4 sequence (P9WHJ3 whole entry): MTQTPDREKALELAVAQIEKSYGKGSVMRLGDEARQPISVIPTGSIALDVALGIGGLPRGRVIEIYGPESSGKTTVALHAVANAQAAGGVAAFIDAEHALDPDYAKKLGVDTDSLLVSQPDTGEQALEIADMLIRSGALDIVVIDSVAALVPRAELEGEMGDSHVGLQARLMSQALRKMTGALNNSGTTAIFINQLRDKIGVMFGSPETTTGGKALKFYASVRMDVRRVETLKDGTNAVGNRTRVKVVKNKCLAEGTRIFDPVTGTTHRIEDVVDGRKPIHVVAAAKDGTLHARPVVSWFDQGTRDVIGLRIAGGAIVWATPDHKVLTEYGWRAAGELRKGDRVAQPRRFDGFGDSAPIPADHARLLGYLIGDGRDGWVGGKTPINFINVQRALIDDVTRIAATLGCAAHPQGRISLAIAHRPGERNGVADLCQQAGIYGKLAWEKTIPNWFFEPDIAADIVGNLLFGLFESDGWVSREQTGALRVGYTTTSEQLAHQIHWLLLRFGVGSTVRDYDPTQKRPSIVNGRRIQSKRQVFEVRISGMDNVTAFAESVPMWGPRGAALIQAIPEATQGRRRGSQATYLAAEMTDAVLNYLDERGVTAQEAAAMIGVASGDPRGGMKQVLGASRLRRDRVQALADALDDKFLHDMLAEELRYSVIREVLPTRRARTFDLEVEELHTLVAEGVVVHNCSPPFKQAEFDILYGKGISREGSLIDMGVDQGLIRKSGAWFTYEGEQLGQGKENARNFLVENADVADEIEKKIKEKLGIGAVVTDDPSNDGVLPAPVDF

[10] = Intein inhibitors as potential Tuberculosis drugs, a cytotoxicity screen. [Related pubchem assays (depositor defined):AID2221, AID2223, AID434968, AID435010, AID449749, AID449750, AID489010]; format: functional
[11] = molecular target: T5, Kappa-type opioid receptor (Homo sapiens, UniProt P41145); test: SAR analysis of small molecule antagonists of the kappa opioid receptor via a luminescent beta-arrestin assay - Set 5. [Related pubchem assays (depositor defined):AID1778, AID1785]; format: functional
T5 sequence (P41145 whole entry): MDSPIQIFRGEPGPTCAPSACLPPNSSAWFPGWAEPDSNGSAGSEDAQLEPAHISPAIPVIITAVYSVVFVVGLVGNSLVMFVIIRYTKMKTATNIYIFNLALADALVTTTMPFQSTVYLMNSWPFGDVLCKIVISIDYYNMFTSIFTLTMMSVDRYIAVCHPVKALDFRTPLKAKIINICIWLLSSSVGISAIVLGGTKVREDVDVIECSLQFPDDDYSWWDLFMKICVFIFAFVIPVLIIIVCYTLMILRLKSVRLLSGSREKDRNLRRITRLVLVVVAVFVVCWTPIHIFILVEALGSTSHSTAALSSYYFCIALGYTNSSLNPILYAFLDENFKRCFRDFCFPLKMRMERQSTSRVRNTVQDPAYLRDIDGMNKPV

[12] = molecular target: T5, Kappa-type opioid receptor; test: SAR analysis of small molecule antagonists of the kappa opioid receptor via a luminescent beta-arrestin assay - Set 4. [Related pubchem assays (depositor defined):AID1777, AID1778, AID1785, AID1786, AID1966, AID2133, AID2136, AID2285]; format: functional
[13] = molecular target: T6, Runt-related transcription factor 1/Core-binding factor subunit beta (Homo sapiens, UniProt Q01196+Q13951); test: disruptors of Runt domain/CBFb-SMMHC interaction – biochemical, FRET, Cerulean-Runt, Venus-CBFb-SMMHC, uHTS, […] (AID 1434); format: protein assay
T6 sequence (Q01196 whole entry, the tested form may be a part): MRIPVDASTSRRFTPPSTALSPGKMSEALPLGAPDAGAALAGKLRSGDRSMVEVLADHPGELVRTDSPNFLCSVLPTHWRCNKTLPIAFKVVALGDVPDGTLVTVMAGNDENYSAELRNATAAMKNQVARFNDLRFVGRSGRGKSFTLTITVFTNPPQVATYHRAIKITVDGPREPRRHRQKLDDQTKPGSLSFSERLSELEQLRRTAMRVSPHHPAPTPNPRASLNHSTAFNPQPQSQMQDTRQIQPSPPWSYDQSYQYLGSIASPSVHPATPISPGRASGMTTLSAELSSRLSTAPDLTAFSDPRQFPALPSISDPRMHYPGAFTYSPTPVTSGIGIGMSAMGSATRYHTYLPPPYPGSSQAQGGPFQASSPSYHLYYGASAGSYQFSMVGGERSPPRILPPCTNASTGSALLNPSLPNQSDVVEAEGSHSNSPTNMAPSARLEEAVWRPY
T6 sequence (Q13951 whole entry, the tested form may be a part): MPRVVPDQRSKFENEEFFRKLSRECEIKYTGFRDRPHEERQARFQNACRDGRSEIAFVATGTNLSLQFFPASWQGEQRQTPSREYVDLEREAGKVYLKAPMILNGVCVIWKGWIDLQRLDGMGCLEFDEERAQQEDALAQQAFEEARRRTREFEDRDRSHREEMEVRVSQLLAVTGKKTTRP

[14] = molecular target: T6, Runt-related transcription factor 1/Core-binding factor subunit beta; test: Runt domain/CBFb-SMMHC interaction disruptors – biochemical, TR-FRET (AID 1438); format: protein assay
[15] = molecular target: Nucleotide-binding oligomerization domain-containing protein 2 (Homo sapiens, UniProt Q9HC29); test: inhibition of MDP-driven NOD2 NF-kB reporter – cell-based, set 3, SAR follow-up (AID 2799); format: functional
Sequence of Nucleotide-binding oligomerization domain-containing protein 2 (Q9HC29 whole entry, the tested form may be a part): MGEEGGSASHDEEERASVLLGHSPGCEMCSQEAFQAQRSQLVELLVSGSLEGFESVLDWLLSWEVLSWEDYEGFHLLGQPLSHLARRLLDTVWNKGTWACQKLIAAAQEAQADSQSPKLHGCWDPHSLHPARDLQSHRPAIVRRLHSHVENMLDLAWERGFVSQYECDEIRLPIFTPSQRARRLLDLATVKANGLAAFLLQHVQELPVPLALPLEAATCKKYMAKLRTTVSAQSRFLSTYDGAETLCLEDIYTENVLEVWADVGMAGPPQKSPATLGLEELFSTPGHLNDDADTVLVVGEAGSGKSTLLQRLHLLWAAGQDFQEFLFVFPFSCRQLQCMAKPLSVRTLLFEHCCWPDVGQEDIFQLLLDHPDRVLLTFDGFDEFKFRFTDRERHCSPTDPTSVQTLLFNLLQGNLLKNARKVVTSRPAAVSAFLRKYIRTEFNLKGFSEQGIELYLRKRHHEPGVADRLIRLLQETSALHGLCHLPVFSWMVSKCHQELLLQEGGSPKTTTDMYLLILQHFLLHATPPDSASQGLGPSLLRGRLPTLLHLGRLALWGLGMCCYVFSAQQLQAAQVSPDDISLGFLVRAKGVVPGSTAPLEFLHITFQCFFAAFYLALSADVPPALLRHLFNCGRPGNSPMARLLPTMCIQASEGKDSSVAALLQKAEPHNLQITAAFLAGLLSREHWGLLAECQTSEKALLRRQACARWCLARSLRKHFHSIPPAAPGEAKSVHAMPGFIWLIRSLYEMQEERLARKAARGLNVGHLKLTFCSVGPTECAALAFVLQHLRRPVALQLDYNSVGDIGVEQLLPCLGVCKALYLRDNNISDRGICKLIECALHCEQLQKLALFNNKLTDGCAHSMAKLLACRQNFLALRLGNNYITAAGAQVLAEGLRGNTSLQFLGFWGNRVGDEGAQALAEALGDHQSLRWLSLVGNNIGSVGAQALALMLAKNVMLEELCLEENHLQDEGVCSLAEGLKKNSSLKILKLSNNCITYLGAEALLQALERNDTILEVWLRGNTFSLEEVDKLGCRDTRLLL

[16] = system: HEK293; test: SAR analysis of compounds that are cytotoxic to HEK293 - Set 3. [Related pubchem assays (depositor defined):AID1575, AID1578, AID1848, AID1849, AID2001, AID2333, AID2334, AID2335, AID2337, AID2469]; format: functional, cell-based; settings: Homo sapiens
[17] = molecular target: Nucleotide-binding oligomerization domain-containing protein 1 (Homo sapiens, UniProt Q9Y239); test: SAR analysis of compounds that inhibit NOD1 - Set 3. [Related pubchem assays (depositor defined):AID1566, AID1575, AID1578, AID1849, AID1852, AID2333, AID2335, AID2466]; format: functional
Sequence of Nucleotide-binding oligomerization domain-containing protein 1 (Q9Y239 whole entry, the tested form may be a part): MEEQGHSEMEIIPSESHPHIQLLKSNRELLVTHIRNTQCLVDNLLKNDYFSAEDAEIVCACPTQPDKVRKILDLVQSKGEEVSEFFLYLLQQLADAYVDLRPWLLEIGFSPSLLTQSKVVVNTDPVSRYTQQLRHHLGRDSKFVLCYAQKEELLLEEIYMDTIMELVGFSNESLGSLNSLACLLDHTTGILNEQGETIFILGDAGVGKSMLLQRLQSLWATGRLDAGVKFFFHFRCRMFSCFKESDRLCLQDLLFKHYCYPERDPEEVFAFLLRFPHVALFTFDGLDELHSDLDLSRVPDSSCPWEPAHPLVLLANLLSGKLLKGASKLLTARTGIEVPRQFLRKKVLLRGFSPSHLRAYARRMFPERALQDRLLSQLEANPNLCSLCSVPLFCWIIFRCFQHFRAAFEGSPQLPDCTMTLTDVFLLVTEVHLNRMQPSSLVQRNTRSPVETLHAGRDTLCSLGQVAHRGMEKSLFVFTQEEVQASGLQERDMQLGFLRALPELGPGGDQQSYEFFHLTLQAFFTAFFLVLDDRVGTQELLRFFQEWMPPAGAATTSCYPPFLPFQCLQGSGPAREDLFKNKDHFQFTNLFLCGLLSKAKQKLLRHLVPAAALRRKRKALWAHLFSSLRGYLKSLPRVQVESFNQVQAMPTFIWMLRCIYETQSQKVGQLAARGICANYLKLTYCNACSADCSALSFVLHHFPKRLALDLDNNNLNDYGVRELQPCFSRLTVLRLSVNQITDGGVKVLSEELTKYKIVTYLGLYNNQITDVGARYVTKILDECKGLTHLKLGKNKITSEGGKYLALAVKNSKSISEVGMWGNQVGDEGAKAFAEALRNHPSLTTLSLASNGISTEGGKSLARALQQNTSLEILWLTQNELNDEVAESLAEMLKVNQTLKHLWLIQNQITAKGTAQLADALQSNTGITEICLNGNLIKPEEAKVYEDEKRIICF

[18] = molecular target: Tumor necrosis factor (Homo sapiens, UniProt P01375); test: analog potency on TNFa NF-kB signaling – cell-based, set 3, SAR follow-up (AID 2801); format: functional
Sequence of Tumor necrosis factor (P01375 whole entry): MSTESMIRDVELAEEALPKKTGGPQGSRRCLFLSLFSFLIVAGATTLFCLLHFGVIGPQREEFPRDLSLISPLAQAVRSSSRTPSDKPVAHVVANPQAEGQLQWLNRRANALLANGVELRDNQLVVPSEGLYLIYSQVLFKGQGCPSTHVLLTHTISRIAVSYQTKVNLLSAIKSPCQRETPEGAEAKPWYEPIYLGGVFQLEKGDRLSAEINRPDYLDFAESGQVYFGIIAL
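Wherever CC50 is given: cells exposed to compound for 72 hours before luminescence readout.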

CC(=O)Oc1ccc2c(C)cc(=O)oc2c1
IC50 [1]: > 50 µM (inconclusive) | IC50 [2]: 16.5 µM (active)

c1ccc(CC2CCN(c3ncnc4sc(-c5ccccc5)cc34)CC2)cc1
IC50 [3]: > 55.7 µM (inactive) | IC50 [4]: > 55.7 µM (inactive)

COc1cccc(CN2CCN(Cc3cc4ccccc4[nH]3)CC2CCO)c1 (stereo not drawn)
EC50 [5]: 5.32 µM (active) | EC50 [6]: 15.1 µM (active) | EC50 [7]: 5.42 µM (active)

N#CC1=C(N)Oc2[nH]nc(-c3ccccc3)c2C1c1cccc(OC(=O)N2CCOCC2)c1 (stereo not drawn)
AC50 [8]: 4.72 µM (active) | EC50 [9]: 1.19 µM (active) | CC50 [10]: 31.4 µM (active)

CC(C)N(CCNC(=O)c1ccc(CNS(=O)(=O)c2ccc(C#N)cc2)cc1)Cc1ccccc1
IC50 [11]: 1.36 µM (active) | IC50 [12]: 3.54 µM (active)

Cc1cc(O)ccc1Nc1nc2ccccc2nc1Nc1ccc(O)cc1C
IC50 [13]: 9.73 µM (active) | IC50 [14]: 7.08 µM (active)

CC(C)c1ccc(S(=O)(=O)n2c(N)nc3ccccc32)cc1
IC50 [15]: > 20 µM (inactive) | IC50 [16]: > 20 µM (inactive) | IC50 [17]: 0.495 µM (active) | IC50 [18]: > 20 µM (inactive)
